In patent US5264429A, “2-spirocyclopropyl cephalosporin sulfone derivatives” (SynPhar Laboratories, Inc., priority 1991, dated 1993):
pIC50: −log10 of the molar value. One block for each compound: values may come before it.

How the values were obtained:
[1] = biological target: T1, human leukocyte elastase (HLE) (Homo sapiens, UniProt P08246); assay: Enzyme Assay for Inhibition of HLE; format: biochemical; details: HLE 10 nM, pH 7.6, 10 minute preincubation, 30° C.
T1 construct: from tissue; host or cells: human white blood cells
T1 sequence (P08246 30-247 limits assumed): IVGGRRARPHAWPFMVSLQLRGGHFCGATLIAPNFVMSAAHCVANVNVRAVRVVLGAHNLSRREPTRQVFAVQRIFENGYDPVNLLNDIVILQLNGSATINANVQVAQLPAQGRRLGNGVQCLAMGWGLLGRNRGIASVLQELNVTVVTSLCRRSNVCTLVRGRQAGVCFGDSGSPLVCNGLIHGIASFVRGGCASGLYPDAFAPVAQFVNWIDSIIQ
Protocol: Enzyme Assay for Inhibition of HLE:
Enzyme: Purified elastase from human white blood cells.
Substrate: MeO-succinyl-L-alanyl-L-alanyl-L-prolyl-L-valine-p-nitro-anilide(NA).
Reaction Mixture: 10 mM phosphate buffer (pH 7.6), 500 mM NaCl, 10% dimethylsulfoxide (DMSO), 0.35 mM substrate.
The enzyme activity was determined by monitoring the increase in absorbance at 410 nm caused by the hydrolysis of chromogenic substrates. Inhibition of enzyme by the compounds described were determined after a 10 minute preincubation with the enzyme in reaction mixture minus substrate. Reaction was initiated by the addition of substrate. The concentration of human leukocyte elastase used for assay was at 10 nM.
HLE, CTG, PPE and CTD were tested at 30° C. and the others were […]

[2] = biological target: T2, trypsin (Bos taurus, UniProt P00760); assay: Inhibition of trypsin (TRY); format: biochemical, bovine; details: trypsin, pH 8.8, 10 minute preincubation, 22° C.; read-out: IC50 TRY (converted)
T2 construct: from tissue; host or cells: bovine pancreas
T2 sequence (P00760 24-246): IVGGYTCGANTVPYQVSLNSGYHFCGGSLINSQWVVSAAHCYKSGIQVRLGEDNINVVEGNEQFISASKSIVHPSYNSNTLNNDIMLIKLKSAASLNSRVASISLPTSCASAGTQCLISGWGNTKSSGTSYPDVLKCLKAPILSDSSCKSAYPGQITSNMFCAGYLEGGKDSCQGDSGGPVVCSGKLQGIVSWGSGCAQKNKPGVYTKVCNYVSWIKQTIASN

[3] = biological target: T3, thrombin (Homo sapiens, UniProt P00734); assay: Inhibition of thrombin (THR); format: biochemical; details: pH 8.6, 10 minute preincubation, 22° C.
T3 construct: from tissue; host or cells: human plasma
Protocol: (§1) HLE, CTG, PPE and CTD were tested at 30° C. and the others were
(§2) TRY, trypsin; THR, thrombin; PTH, plasmin; CTC, cathepsin C; ATM,
Enzyme: Purified thrombin from human plasma
Substrate: Tosyl-glycyl-L-prolyl-L-arginine-p-NA acetate
Reaction mixture: 50 mM Tricine-NaOH buffer (pH 8.6), 500 mM NaCl, 0.1% Polyethyleneglycol 8000, 10% DMSO, 0.5 mM Substrate.
(§3) Except for Cathepsin D, the enzyme activities were determined by monitoring the increase in absorbance at 410 nm caused by the hydrolysis of chromogenic substrates. The activity of Cathepsin D was determined by monitoring the absorbance of 5% trichloroacetic acid-soluble material at 280 nm.
(§4) Inhibition of enzymes by the compounds described were determined after a 10 minute preincubation with enzymes in reaction mixtures minus substrate. Reactions were initiated by the addition of substrates. The concentration used for assays were porcine pancreatic elastase at 240 nM and human Cathepsin G at 50 nM. Cathepsin D was used at the concentration that produced approximately 0.15 O.D. increase per 20 min at 280 nm under the standard conditions. All other proteases were assayed at the concentrations that produced approximately 0.1 O.D. change per minute at 410 nm under the standard conditions.

[4] = biological target: T4, plasmin (Homo sapiens, UniProt P00747); assay: Inhibition of plasmin (PTH); format: biochemical; details: pH 8.9, 10 minute preincubation, 22° C.
T4 construct: from tissue; host or cells: human plasma
Protocol: as §1, §2
Enzyme: Purified plasmin from human plasma Substrate: Tosyl-glyclyl-L-prolyl-L-lysine-pNA acetate
Reaction mixture: 50 mM Tris-HCl buffer (pH 8.9), 500 mM NaCl, 5% DMSO, 0.5 mM Substrate.
as §3, §4

[5] = biological target: T5, cathepsin C (Bos taurus, UniProt Q3ZCJ8); assay: Inhibition of cathepsin C (CTC); format: biochemical, bovine; details: cathepsin C, pH 5.4, 10 minute preincubation, 22° C.; read-out: IC50 CTC
T5 construct: from tissue; host or cells: bovine spleen
Protocol: as §1, §2
Enzyme: Purified cathepsin C from bovine spleen
Substrate: Glycyl-L-phenylalanine-pNA
Reaction mixture: 50 mM Citrate buffer (pH 5.4), 5 mM B-Mercaptoethanol, 150 mM NaCl, 10% DMSO, 20 mM Substrate.
as §3, §4

[6] = biological target: T6, aminopeptidase M (Sus scrofa, UniProt P15145); assay: Inhibition of aminopeptidase M (ATM); format: biochemical, porcine; details: aminopeptidase M, pH 7.5, 10 minute preincubation, 22° C.; read-out: IC50 ATM
T6 construct: from tissue; host or cells: porcine kidney
T6 sequence (P15145 1-963): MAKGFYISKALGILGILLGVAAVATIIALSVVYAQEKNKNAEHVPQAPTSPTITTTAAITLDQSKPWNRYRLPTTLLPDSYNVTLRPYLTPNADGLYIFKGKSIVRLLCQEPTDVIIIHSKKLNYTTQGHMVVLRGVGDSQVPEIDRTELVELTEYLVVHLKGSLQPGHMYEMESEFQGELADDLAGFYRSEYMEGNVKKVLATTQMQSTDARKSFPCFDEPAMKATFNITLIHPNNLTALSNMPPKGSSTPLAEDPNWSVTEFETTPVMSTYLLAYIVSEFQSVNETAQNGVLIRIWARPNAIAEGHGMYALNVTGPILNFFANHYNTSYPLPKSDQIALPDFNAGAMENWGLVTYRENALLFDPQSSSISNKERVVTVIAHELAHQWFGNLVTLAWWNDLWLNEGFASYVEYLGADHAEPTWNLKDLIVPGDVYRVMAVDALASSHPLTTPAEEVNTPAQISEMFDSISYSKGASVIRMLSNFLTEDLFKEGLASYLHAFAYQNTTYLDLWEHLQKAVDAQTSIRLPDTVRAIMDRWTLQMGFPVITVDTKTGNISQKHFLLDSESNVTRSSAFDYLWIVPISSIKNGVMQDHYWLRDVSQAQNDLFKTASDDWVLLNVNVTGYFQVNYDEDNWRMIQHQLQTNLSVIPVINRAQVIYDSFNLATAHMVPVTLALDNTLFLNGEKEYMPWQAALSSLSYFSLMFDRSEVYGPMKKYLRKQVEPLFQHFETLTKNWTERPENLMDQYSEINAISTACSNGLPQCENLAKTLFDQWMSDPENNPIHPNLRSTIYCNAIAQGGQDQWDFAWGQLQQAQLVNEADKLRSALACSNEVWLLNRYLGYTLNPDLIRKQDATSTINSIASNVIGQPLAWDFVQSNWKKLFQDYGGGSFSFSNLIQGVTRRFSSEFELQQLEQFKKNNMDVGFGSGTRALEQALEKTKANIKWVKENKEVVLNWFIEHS
Protocol: as §1, §2
aminopeptidase M; CTG, cathespin G; CTD, cathespin D; PPE, porcine
Enzyme: Purified aminopeptidase M from porcine kidney
Reaction Mixture: 50 mM Tricine buffer (pH 7.5), 500 mM NaCl, 10% DMSO, 2.0 mM Substrate.
as §3, §4

[7] = biological target: T7, cathepsin G (Homo sapiens, UniProt P08311); assay: Inhibition of cathepsin G (CTG); format: biochemical; details: cathepsin G 50 nM, pH 7.5, 10 minute preincubation, 30° C.; read-out: IC50 CTG (converted)
T7 construct: from tissue; host or cells: human white blood cells
T7 sequence (P08311 21-244 limits assumed): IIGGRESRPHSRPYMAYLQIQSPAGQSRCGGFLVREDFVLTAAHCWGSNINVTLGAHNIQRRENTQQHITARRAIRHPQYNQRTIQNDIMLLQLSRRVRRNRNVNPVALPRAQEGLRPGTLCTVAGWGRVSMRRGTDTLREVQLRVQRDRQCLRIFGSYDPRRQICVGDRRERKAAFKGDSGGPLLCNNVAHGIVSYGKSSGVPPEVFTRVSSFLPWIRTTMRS
Protocol: Enzyme: Purified Cathepsin G from human white blood cells
Substrate: N-succinyl-L-alanyl-L-alanyl-L-phenylalanyl-L-phenylalanine -p-NA.
Reaction mixture: 10 mM Phosphate buffer (pH 7.5), 500 mM NaCl, 10% DMSO, 2.0 mM Substrate.

[8] = biological target: T8, cathepsin D (Bos taurus, UniProt P80209); assay: Inhibition of cathepsin D (CTD); format: biochemical, bovine
T8 construct: from tissue; host or cells: bovine spleen
Protocol: as §4, with “Except for Cathepsin D, the enzyme activities were determined by monitoring the increase in absorbance at 410 nm caused by the hydrolysis of chromogenic substrates. The activity of Cathepsin D was determined by monitoring the absorbance of 5% trichloroacetic acid-soluble material at 280 nm. Inhibition” for “Inhibition”, “The concentration used for assays were porcine pancreatic elastase at 240 nM and human Cathepsin G at 50 nM.” left out

T8 sequence (P80209 45-390): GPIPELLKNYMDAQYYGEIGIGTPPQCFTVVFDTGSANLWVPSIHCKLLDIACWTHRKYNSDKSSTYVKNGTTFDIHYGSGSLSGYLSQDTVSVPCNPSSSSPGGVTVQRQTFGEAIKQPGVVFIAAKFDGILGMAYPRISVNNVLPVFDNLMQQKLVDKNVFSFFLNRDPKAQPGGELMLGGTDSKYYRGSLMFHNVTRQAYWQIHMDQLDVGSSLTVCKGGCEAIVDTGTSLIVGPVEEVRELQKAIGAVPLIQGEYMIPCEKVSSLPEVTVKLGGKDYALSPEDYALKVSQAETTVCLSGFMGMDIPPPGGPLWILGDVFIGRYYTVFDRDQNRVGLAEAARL
T5 sequence (Q3ZCJ8 231-394 limits assumed): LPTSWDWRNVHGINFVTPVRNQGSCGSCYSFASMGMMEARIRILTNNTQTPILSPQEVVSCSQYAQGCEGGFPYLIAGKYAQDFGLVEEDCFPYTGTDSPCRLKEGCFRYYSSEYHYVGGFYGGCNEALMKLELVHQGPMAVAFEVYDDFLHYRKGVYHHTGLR
T5 sequence (Q3ZCJ8 395-463 limits assumed): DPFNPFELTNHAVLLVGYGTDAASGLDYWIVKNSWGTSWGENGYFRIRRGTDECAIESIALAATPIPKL
T5 sequence (Q3ZCJ8 25-134 limits assumed): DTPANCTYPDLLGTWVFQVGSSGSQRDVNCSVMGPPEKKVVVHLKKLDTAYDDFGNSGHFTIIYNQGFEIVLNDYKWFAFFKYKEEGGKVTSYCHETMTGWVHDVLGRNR
T4 sequence (P00747 581-810 limits assumed): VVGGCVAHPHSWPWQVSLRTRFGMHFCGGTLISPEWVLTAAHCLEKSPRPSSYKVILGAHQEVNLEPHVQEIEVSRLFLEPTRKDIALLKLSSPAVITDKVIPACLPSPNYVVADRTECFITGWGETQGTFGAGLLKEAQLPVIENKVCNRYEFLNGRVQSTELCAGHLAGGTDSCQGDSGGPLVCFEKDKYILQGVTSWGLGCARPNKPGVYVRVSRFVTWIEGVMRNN
T4 sequence (P00747 97-580 partner limits assumed): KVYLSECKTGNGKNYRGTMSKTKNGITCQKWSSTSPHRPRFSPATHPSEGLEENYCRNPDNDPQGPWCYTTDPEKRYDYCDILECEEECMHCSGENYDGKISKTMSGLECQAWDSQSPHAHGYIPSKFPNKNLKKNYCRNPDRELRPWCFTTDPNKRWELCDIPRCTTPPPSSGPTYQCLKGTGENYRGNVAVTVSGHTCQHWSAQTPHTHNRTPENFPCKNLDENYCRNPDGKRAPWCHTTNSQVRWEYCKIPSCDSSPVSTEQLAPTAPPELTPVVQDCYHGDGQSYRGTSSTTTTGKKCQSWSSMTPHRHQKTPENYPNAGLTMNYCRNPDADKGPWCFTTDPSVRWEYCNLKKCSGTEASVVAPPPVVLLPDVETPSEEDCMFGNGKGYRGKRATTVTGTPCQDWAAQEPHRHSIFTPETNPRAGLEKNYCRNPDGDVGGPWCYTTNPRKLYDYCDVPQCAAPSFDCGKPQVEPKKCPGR

pIC50 [1]: 7.31
Structure (SMILES): Cc1nnc(SCC2=C(C(=O)OC(c3ccccc3)c3ccccc3)N3C(=O)[C@H](Br)[C@H]3[S+]([O-])C23CC3(c2ccc(Cl)cc2)c2ccc(Cl)cc2)s1 (stereo partly drawn) [Benzhydryl-7α-bromo-2-spiro[2',2'-(4',4'-dichloro)diphenyl]-cyclopropyl-3-[(5-methyl-1,3,4-thiadiazol-2-yl)thiomethyl]-3-cephem-4-carboxylate-1-oxide]

Structure (SMILES): CC(=O)OCC1=C(C(=O)OC(C)(C)C)N2C(=O)[C@H](Cl)[C@H]2S(=O)(=O)C12CC2(c1ccccc1)c1ccccc1 (stereo partly drawn) [Example 4, t-Butyl 7α-chloro-2-spiro(2',2'-diphenyl)cyclopropyl-3-acetoxymethyl-3-cephem-4-carboxylate-1,1-dioxide]
pIC50 [1]: 7.04

Structure (SMILES): CO[C@H]1C(=O)N2C(C(=O)N3CCCCC3)=C(C)C3(CC3(c3ccccc3)c3ccccc3)S(=O)(=O)[C@H]12 (stereo partly drawn) [Example 11, 7α-Methoxy-2-spiro (2',2'-diphenyl)cyclopropyl-3-methyl-3-cephem-4-piperidine carboxamide-1,1-dioxide]
pIC50 [1]: 7.97
IC50 [2]: > 10000 nM
pIC50 [3]: < 4.40
pIC50 [4]: < 5.00
pIC50 [5]: < 5.00
pIC50 [6]: < 5.00
IC50 [7]: > 10000 nM
pIC50 [8]: 7.50

pIC50 [1]: 8.39
Structure (SMILES): COc1ccc(COC(=O)C2=C(CCl)C3(CC3(c3ccccc3)c3ccccc3)S(=O)(=O)[C@@H]3[C@@H](Br)C(=O)N23)cc1 (stereo partly drawn) [p-Methoxybenzyl 7α-bromo-2-spiro(2',2'-diphenyl) cyclopropyl-3-chloromethyl-3-cephem-4-carboxylate-1,1-dioxide]

pIC50 [1]: 6.83
Structure (SMILES): CC1=C(C(=O)OC(c2ccccc2)c2ccccc2)N2C(=O)CC2S(=O)(=O)C12CC2(c1ccccc1)c1ccccc1 (stereo not shown) [Example 5, Benzhydryl 7,7-dihydro-2-spiro(2',2'-diphenyl)cyclopropyl-3-methyl-3-cephem-4-carboxylate-1,1-dioxide]

pIC50 [1]: 8.18
Structure (SMILES): CC1=C(C(=O)OC(c2ccccc2)c2ccccc2)N2C(=O)[C@H](Br)[C@H]2S(=O)(=O)C12CC2c1ccccc1 (stereo partly drawn) [Example 13 (3), Benzhydryl 7α-bromo-2-spiro(2'-phenyl)cyclopropyl-3-methyl-3-cephem-4-carboxylate-1,1-dioxide]
